Consider 19 compounds from patent US8956445B2, “High stability diionic liquid salts” (Sigma-Aldrich Co., priority 2004, dated 2015).

The nature of series [1]: Refractive index (Abbe-3L refractometer). Conditions: 23° C. The format is physicochemical. As to the method:
(§1) The densities of the ionic liquids or, more correctly, […] (used synonymously except as indicated otherwise explicitly or by context) was determined at 23° C. by placing 2.0 mL of the ionic liquid in a 2.0 mL volumetric tube and weighing by difference. The melting points of the ionic liquids were determined using a Perkin Elmer Pyris 1 Differential Scanning calorimeter (Boston, Mass.). Typical methods involved using a 10° C./min temperature ramp to determine and identify the first and second order thermal transitions. […] For solid compounds, the melting points were verified using a capillary melting point apparatus. Refractive index measurements were conducted at 23° C. using a Bausch & Lomb Abbe-3L refractometer.

Series [2] in a line: Density (2.0 mL volumetric tube, weighing by difference). It is filed as physicochemical. Conditions: 23° C. As to the method:
as §1

For series [3] the following is noted: values taken from reference 31, cited from earlier work.
Series [4] is described as follows: Solvation interaction parameters by inverse gas-liquid chromatography (Abraham solvation model). The format is physicochemical. As to the method: The preparation of the capillary columns for inverse gas-liquid chromatographic analysis was performed using a previously described procedure.^31 All capillary columns had efficiencies between 2100 to 2500 plates/meter. Characterization of the capillary columns and probe molecule descriptions are listed in supplemental information. Multiple linear regression analysis (MLRA) and statistical calculations were performed using the program Analyse-it (Microsoft, USA).
We have previously reported that the Abraham solvation model, a linear free energy approach that utilizes inverse gas-liquid chromatography to describe the solvation properties of a liquid, can be used to characterize room temperature ionic liquids.^31 Described by equation 1, the model provides the so-called “interaction parameters” (r, s, a, b, l) by using multiple linear regression analysis to fit the retention factor (k, determined chromatographically) to the solute descriptors (R2, π2^H, α2^H, β2^H, log L^16) for a wide variety of probe solute molecules. […] The solvation properties of four dicationic ionic liquids (see Table 4) were evaluated and the interaction parameters compared to those obtained for their traditional monocationic analogues 1-butyl-3-methylimidazolium and 1-butyl-1-methylpyrrolidinium ionic liquids.
Previously we characterized a large number of room temperature ionic liquids in terms of multiple solvation interactions using the solvation parameter model, shown in equation 3.^44 log k=c+rR2+sπ2^H+aα2^H+bβ2^H+l log L^16 [3] This approach utilizes inverse gas-liquid chromatography and allows the use of a large number of probe molecules to deconvolute solute retention in terms of the type and magnitude of individual solvation interactions. The solute descriptors (R2, π2^H, α2^H, β2^H, log L^16) from Equation 3 are obtained from the literature for many probe molecules containing a variety of functional groups.^45 The retention factor is determined chromatographically. The solute descriptors and retention factors are subjected to multiple linear regression analysis to obtain the interaction parameter coefficients (r, s, a, b, l), which ultimately characterize the stationary phase: r is the ability of the diionic liquid containing-stationary phase to interact with π and n electrons of the solute, s is a measure of the dipolarity/polarizability of the diionic liquid containing-stationary phase, a defines the diionic liquid containing-stationary phase hydrogen bond basicity, b is a measure of the hydrogen bond acidity, and/refers to the ability of the diionic liquid containing-stationary phase to separate adjacent members of a homologous series.^46
Test solutes used to determine interaction parameters and solvation thermodynamics were dissolved in dichloromethane. A Hewlett-Packard model 5890 gas chromatograph and a Hewlett-Packard 6890 series integrator were used for all separations. Split injection and flame ionization detection were utilized with injection and detection temperatures of 250° C. Helium was used as the carrier gas with a column inlet pressure of 3.1 psi and flow rate of 1.0 mL/min. Methane was used to determine the dead volume of the column. Multiple linear regression analysis and statistical calculations were performed using the program Analyze-it (Microsoft).

Read-outs that look alike come from different tables or passages of the source.

For the compound `Cc1n(C)cc[n+]1CCC[n+]1ccn(C)c1C.F[P-](F)(F)(F)(F)F.F[P-](F)(F)(F)(F)F` [C3(m2im)2-PF6, 1,3-di(2,3-dimethylimidazolium)propane di-hexafluorophosphate], the “Miscibility with Heptane” value is given as “Immiscible” and the “Miscibility with Water” value is “Immiscible”.

With `C=Cn1cc[n+](CCCCCCCCCCCC[n+]2ccn(C=C)c2)c1.O=S(=O)([N-]S(=O)(=O)C(F)(F)F)C(F)(F)F.O=S(=O)([N-]S(=O)(=O)C(F)(F)F)C(F)(F)F` [C12(vim)2-NTf2], the “Refractive Index” value in series [1] was 1.458. For the same compound, the Density in series [2] turned out to be 1.42 g/mL.

With `CCCC[N+]1(C)CCCC1.O=S(=O)([N-]S(=O)(=O)C(F)(F)F)C(F)(F)F` [BMPY—NTf2, 1-butyl-1-methylpyrrolidinium bis[(trifluoromethylsulfonyl)imide]], in series [3] (40° C.), the “a (hydrogen bond basicity)” value is 2.08; the “b (hydrogen bond acidity)” value is on record as 0.16; the “c (interaction parameter table, constant)” value is listed as −2.78; the “l (dispersion forces)” value is 0.68. For the same compound, in series [3] (40° C.), the “r (interaction via nonbonding and π-electrons)” value is on record as 0; the “s (dipolarity/polarizability)” value was 1.69. In series [3] (70° C.), the “a (hydrogen bond basicity)” value was 1.78; the “b (hydrogen bond acidity)” value was 0; the “c (interaction parameter table, constant)” value is −2.80; the “l (dispersion forces)” value is reported as 0.56. Moreover, in series [3] (70° C.), the “r (interaction via nonbonding and π-electrons)” value was 0; the “s (dipolarity/polarizability)” value is 1.53. Besides, in series [3] (100° C.), the “a (hydrogen bond basicity)” value is listed as 1.55; the “b (hydrogen bond acidity)” value is 0; the “c (interaction parameter table, constant)” value was −2.92; the “l (dispersion forces)” value was 0.48. In series [3] (100° C.), the “r (interaction via nonbonding and π-electrons)” value was 0; the “s (dipolarity/polarizability)” value was 1.44.

In the case of `C[n+]1ccn(CCCCCCn2cc[n+](C)c2)c1.F[B-](F)(F)F.F[B-](F)(F)F` [C6(mim)2-BF4, 1,6-di(3-methylimidazolium)hexane di-tetrafluoroborate], the “Miscibility with Heptane” value is “Immiscible” and the “Miscibility with Water” value is “Miscible”.

Regarding `C[n+]1ccn(CCCCn2cc[n+](C)c2)c1.O=S(=O)([N-]S(=O)(=O)C(F)(F)F)C(F)(F)F.O=S(=O)([N-]S(=O)(=O)C(F)(F)F)C(F)(F)F` [C4(mim)2-NTf2], in series [4] (40° C.), the “a (hydrogen bond basicity)” value amounted to 2.11; the “b (hydrogen bond acidity)” value was found to be 0.50; the “c (interaction parameter table, constant)” value was −2.94; the “l (dispersion forces)” value is recorded as 0.56. In series [4] (40° C.), the “r (interaction via nonbonding and π-electrons)” value amounted to 0.25; the “s (dipolarity/polarizability)” value was 2.01. In series [4] (70° C.), the “a (hydrogen bond basicity)” value stood at 1.77; the “b (hydrogen bond acidity)” value amounted to 0.45; the “c (interaction parameter table, constant)” value was −2.91; the “l (dispersion forces)” value stood at 0.44. Besides, in series [4] (70° C.), the “r (interaction via nonbonding and π-electrons)” value is given as 0.22; the “s (dipolarity/polarizability)” value was determined as 1.78. Besides, in series [4] (100° C.), the “a (hydrogen bond basicity)” value worked out at 1.57; the “b (hydrogen bond acidity)” value is 0.33; the “c (interaction parameter table, constant)” value is −3.06; the “l (dispersion forces)” value stood at 0.37. For the same compound, in series [4] (100° C.), the “r (interaction via nonbonding and π-electrons)” value came to 0.20; the “s (dipolarity/polarizability)” value was 1.69.

Take “1-vinyl-3-nonylimidazolium bis[(trifluoromethane)sulfonyl]imidate [nvim-NTf2]”: the “Refractive Index” value in series [1] was 1.445. In series [2], the Density turned out to be 1.28 g/mL.

Take “1-vinyl-3-hexylimidazolium bis[(trifluoromethane)sulfonyl]imidate [hvim-NTf2]”: the “Refractive Index” value in series [1] is 1.443. Besides, in series [2], the Density amounted to 1.36 g/mL.

For the compound `Cc1n(C)cc[n+]1CCC[n+]1ccn(C)c1C.O=S(=O)([N-]S(=O)(=O)C(F)(F)F)C(F)(F)F.O=S(=O)([N-]S(=O)(=O)C(F)(F)F)C(F)(F)F` [C3(m2im)2-NTf2, 1,3-di(2,3-dimethylimidazolium)propane di-bis[(trifluoromethyl)sulfonyl]imidate], the “Miscibility with Heptane” value is recorded as “Immiscible” and the “Miscibility with Water” value is “Immiscible”.

With `Cn1cc[n+](CCCCCCCCC[n+]2ccn(C)c2)c1.F[P-](F)(F)(F)(F)F.F[P-](F)(F)(F)(F)F` [C9(mim)2-PF6, 1,9-di(3-methylimidazolium)nonane di-hexafluorophosphate], the “Miscibility with Heptane” value was “Immiscible” and the “Miscibility with Water” value is on record as “Immiscible”.

Regarding “1-vinyl-3-dodecylimidazolium bis[(trifluoromethane)sulfonyl]imidate [dvim-NTf2]”, in series [1], the “Refractive Index” value was 1.448. In series [2], this compound displayed a Density of 1.23 g/mL.

Take `C[N+]1(CCC[N+]2(C)CCCC2)CCCC1.O=S(=O)([N-]S(=O)(=O)C(F)(F)F)C(F)(F)F.O=S(=O)([N-]S(=O)(=O)C(F)(F)F)C(F)(F)F` [C3(mpy)2-NTf2, 1,3-di(methylpyrrolidinium)propane di-bis[(trifluoromethyl)sulfonyl]imidate]: the “Miscibility with Heptane” value was “Immiscible” and the “Miscibility with Water” value is listed as “Immiscible”.

Consider `C[n+]1ccn(CCCCCCn2cc[n+](C)c2)c1.F[P-](F)(F)(F)(F)F.F[P-](F)(F)(F)(F)F` [C6(mim)2-PF6, 1,6-di(3-methylimidazolium)hexane di-hexafluorophosphate], for which the “Miscibility with Heptane” value is given as “Immiscible” and the “Miscibility with Water” value is reported as “Immiscible”.

On to `CCCC[N+]1(CCCCCCCCC[N+]2(CCCC)CCCC2)CCCC1.F[P-](F)(F)(F)(F)F.F[P-](F)(F)(F)(F)F` [C9(bpy)2-PF6, 1,9-di(butylpyrrolidinium)nonane di-hexafluorophosphate], for which the “Miscibility with Heptane” value is recorded as “Immiscible” and the “Miscibility with Water” value is recorded as “Immiscible”.

For `Cc1n(C)cc[n+]1CCCCCCCCC[n+]1ccn(C)c1C.F[P-](F)(F)(F)(F)F.F[P-](F)(F)(F)(F)F` [C9(m2im)2-PF6, 1,9-di(2,3-dimethylimidazolium)nonane di-hexafluorophosphate], the “Miscibility with Heptane” value was “Immiscible” and the “Miscibility with Water” value is “Immiscible”.

Take `C[N+]1(CCCCCCCCC[N+]2(C)CCCC2)CCCC1.F[P-](F)(F)(F)(F)F.F[P-](F)(F)(F)(F)F` [C9(mpy)2-PF6, 1,9-di(methylpyrrolidinium)nonane di-hexafluorophosphate]: the “Miscibility with Heptane” value is “Immiscible” and the “Miscibility with Water” value is listed as “Immiscible”.

For the compound `Cc1n(C)cc[n+]1CCC[n+]1ccn(C)c1C.[Br-].[Br-]` [C3(m2im)2-Br, 1,3-di(2,3-dimethylimidaolium)propane di-bromide], the “Miscibility with Heptane” value is recorded as “Immiscible” and the “Miscibility with Water” value is “Miscible”.

Consider `Cc1n(C)cc[n+]1CCCCCCCCC[n+]1ccn(C)c1C.[Br-].[Br-]` [C9(m2im)2-Br, 1,9-di(2,3-dimethylimidazolium)nonane di-bromide], for which the “Miscibility with Heptane” value is “Immiscible” and the “Miscibility with Water” value is on record as “Miscible”.

As for `C=Cn1cc[n+](CCCCCCCCCCC[n+]2ccn(C=C)c2)c1.O=S(=O)([N-]S(=O)(=O)C(F)(F)F)C(F)(F)F.O=S(=O)([N-]S(=O)(=O)C(F)(F)F)C(F)(F)F` [C11(vim)2-NTf2], in series [1], the “Refractive Index” value was 1.457. For the same compound, in series [2], the Density came out at 1.44 g/mL.

As to `C=Cn1cc[n+](CCCCCCCCC[n+]2ccn(C=C)c2)c1.O=S(=O)([N-]S(=O)(=O)C(F)(F)F)C(F)(F)F.O=S(=O)([N-]S(=O)(=O)C(F)(F)F)C(F)(F)F` [C9(vim)2-NTf2], the “Refractive Index” value in series [1] stood at 1.457. This compound also displayed a Density in series [2] of 1.47 g/mL.
